The values below come from patent US8859615B2, “Compounds, compositions and methods for reducing toxicity and treating or preventing diseases” (priority 2008, dated 2014).

Where two headings read alike, the source gives them in different places.

Series [1] concerns SK-OV-3 ovarian adenocarcinoma. The experiment in a line: Cytotoxicity against solid tumor cells (Table 4). To be noted: Homo sapiens, CCK-8, 72 hrs. It counts as cell-based. Here is the method:
(§1) Compounds are also evaluated against A-549 lung carcinoma and SK-OV-3 ovarian adenocarcinoma cell lines using the methodology as for Table 3. The potency order for the compounds may vary in different tumor cell lines. […] Absorbance was measured using a Powerwave XS microplate spectrophotometer.

In the next series the test system is A-549 lung carcinoma. The experiment in a line: Cytotoxicity against solid tumor cells (Table 4). It counts as cell-based. Conditions: Homo sapiens, A549, CCK-8, 72 hrs. Here is the method:
as §1

Series [2] has as its system CCRF-CEM/VBL100 vinblastine-resistant cells. The experiment in a line: In vitro cytotoxicity against vinblastine-resistant CCRF-CEM subline. It counts as cell-based, human. Conditions: for IC50: Homo sapiens, CCRF-CEM, 72 h, CCK-8, 72-hr incubation, read-out: IC50 CCRF-CEM/Vinblastine. Here is the method: The cytotoxicity IC50 of each compound was measured with the XTT assay using the 2,3-bis(2-methoxy-4-nitro-5-sulfophenyl)-5-[(phenylamino)carbonyl]-2H-tetrazolium hydroxide (XTT) microculture method as described in Scudiero et al., Cancer Res., 48:4827 (1988), the contents of which are hereby incorporated by reference in their entirety. The CCK-8 assay is a cell counting kit-8 (CCK-8) tetrazolium assay using a 96-well microplate (Dojindo Molecular Technologies, Inc., Rockville, Md.) (M. Ishiyama et al., Biol. Pharm. Bull. 19: 1518, 1996). Absorbance was measured by Powerwave a XS microplate spectrophotometer. This method described is considered a general method in vitro cytotoxicity studies.
(§2) The data in Tables 2X, 3A-E, 4, 5, and 6 were obtained using the cell counting kit-8 (CCK-8) tetrazolium assay in a 96-well microplate. Five to seven concentrations of each compound in triplicate were used, and the IC50 values were determined by CompuSyn software automation (Chou T C. and Martin N. ComboSyn, Inc., 2006) based on the median-effect equation and plot (Chou T C. J. Theor. Biol. 59:235-276, 1976; Chou T C. Pharmacol. Rev. 58: 621-681, 2006). […] The r value defines the correlation coefficient of the median-effect plot which signifies the conformity to the mass-action law principle (Chou T C. J. Theor. Biol. 59:235-276, 1976; Chou T C. Pharmacol. Rev. 58:621-681, 2006). These parameters were determined by CompuSyn simulation (available at http://www.combosyn.com).
CCRF-CEM human T-cell acute lymphoblastic leukemia cells and the corresponding vinblastine-resistant cells (CCRF-CEM/VBL100) were cultured at an initial density of 5×10^4 cells per milliliter. The cultured cells were maintained in a 5% CO2-humidified atmosphere at 37° C. in RPMI medium 1640 (GIBCO/BRL) containing penicillin (100 units/mL), streptomycin (100 μg/mL, GIBCO/BRL), and 10% heat-inactivated fetal bovine serum. The cytotoxicity of each Compound of the invention was measured using the 2,3-bis(2-methoxy-4-nitro-5-sulfophenyl)-5-[(phenylamino)carbonyl]-2H-tetrazolium hydroxide (XTT) microculture method as described in Scudiero et al., Cancer Res., 48:4827 (1988), the contents of which are hereby incorporated by reference in their entirety.
(§3) Absorbance was measured by Powerwave XS microplate spectrophotometer.

Series [3] relates to CCRF-CEM subline resistant to TAXOL. The experiment in a line: In vitro cytotoxicity against TAXOL-resistant CCRF-CEM subline. Conditions: Homo sapiens, CCRF-CEM; Table 3D; CCK-8, 72-hr incubation; read-out: IC50 CCRF-CEM/TAXOL. It counts as cell-based, human. Here is the method: as §2, §3
In the next series the test system is MX-1 mammary carcinoma. Put plainly: Cytotoxicity against solid tumor cells, CCK-8, 72 hrs (Table 4). It is filed as cell-based. Conditions: Homo sapiens. Here is the method:
as §1

The subject of the next series is HCT-116 colon carcinoma. The description is as above. To be noted: Homo sapiens. It counts as cell-based. Here is the method:
as §1

The subject of series [4] is CCRF-CEM human T-cell acute lymphoblastic leukemia cells. Put plainly: In vitro cytotoxicity against CCRF-CEM (XTT / CCK-8 tetrazolium assay, 72 hr). To be noted: for IC50: Homo sapiens, CCRF-CEM. (Tetrazolium assays rely on reduction of a dye to a coloured formazan, in cell work by metabolically active cells.)
Series [5] relates to quinone reductase (NQO1) in Hepa 1c1c7 murine hepatoma cells. Conditions: for comparison; cited from earlier work.
Series [6] relates to human lymphoblastic leukemic T-cell growth. Put plainly: Cytotoxic activity relative to stability during storage at −20° C. in DMSO (Table 10). It is filed as cell-based. To be noted: for IC50: Homo sapiens, CCRF-CEM, 72 h, Table 10, XTT, 72 hr. An excerpt:
Without wishing to be bound by theory, the oxidized versions may be active metabolites. This theory provides an explanation of the delayed onset of therapeutic effects seen in the figures herein. The oxidized compounds may be active agents that are formed slowly upon metabolic oxidation. […] The active metabolites may explain the biphasic pharmacological properties of panaxytriol or Compound D that have been observed (FIGS. 9B, C, D; FIGS. 11D, E, F, and FIGS. 12D, E). […] Induction of the phase 2 enzymes may slow oxidation of the compounds (Ng et al., Tetrahedron Letters. 49: 7178-7179 (2008)).

The subject of series [7] is human mammary carcinoma MX-1 xenograft. The experiment in a line: Therapeutic effect and body weight in nude mice bearing MX-1 xenograft, single agents.
Experimental: FIGS. 1A and 1B show the therapeutic, anti-cancer effects of various dosage regimens of panaxytriol and Compound (A), respectively, given by i.v. injection in nude mice bearing human mammary carcinoma MX-1 xenograft tumors, which is an in vivo model for breast cancer. […] The compounds were administered starting on day 8.
An in vivo assay uses male athymic nude mice bearing the nu/nu gene (6 weeks of age or older, weighing between 20 and 22 g, obtainable from NCl, Frederick, Md.) into which one or more human tumor xenografts are been implanted.
Nude mice having human mammary carcinoma xenograft MX-1 were treated with panaxytriol or Compound (A) at various dosages through the slow i.v. infusion protocol by Chou et al. (Chou, T. C., et al, Proc. Natl. Acad. Sci. U.S.A. 95: 15798 (1998), the contents of which are herein incorporated by reference in their entirety).
A further series has as its system human PBMC lymphocytes. The experiment in a line: DNA synthesis ([3H]thymidine incorporation) in human PBMC lymphocytes (FIG. 8). It counts as cell-based. From the text:
FIG. 8 show the effects of PHA and different concentrations of compounds of the invention, at different time points, on the proliferation of a culture of human lymphocytes as measured by DNA synthesis through incorporation of radiolabeled thymidine into the DNA.
The main principle and method of experiments for human PBMC lymphocytes and for mouse splenocytes stimulations were the same, since both measure immunological cell stimulation by PHA, PXT and compounds of the invention. Both the lymphocyte and the splenocyte assays measure the ^3H-dThd tracer as an indication of DNA synthesis. For PBMC lymphocytes (FIGS. 9A-9G), the experimental methods are those for splenocytes disclosed in Example 24 (FIGS. 11A-11F; FIGS. 12A-12E), except 0.282×10^6 PBMC lymphocyte cells in 198.5 μl was used, and the experimental incubation time was extended to 120 hr.
Briefly, to generate the data in Tables 8A and 8B, the compounds were tested in a [^3H] thymidine uptake experiment using PBMC human lymphocytes obtained from the New York Blood Center. PBMC human lymphocytes were exposed to compounds at 0.03, 0.1, 0.3, and 1.0 μM for 24 hours, and examined for increased [^3H] thymidine uptake. Human lymphocytes were also exposed to compounds for an extended time, e.g., 48 hrs and 72 hrs, instead of 24 hrs, in the [^3H] thymidine uptake assay, and examined to determine the extent of increased [^3H] thymidine uptake to determine if extended exposure will further increase the immune-enhancing effects of the compounds. Increased [^3H] thymidine uptake is interpreted as increased DNA synthesis, which indicates cell growth and division. In the case of immune system cells, this should result in an immune-enhancing effect. The compounds are compared by their IC50 values and/or their effect on [^3H] thymidine uptake at a given concentration and/or time point.

For series [8], the system named is human mammary carcinoma MX-1 xenografts. To be noted: nude, mouse, in vivo.
The conditions of series [9]: mouse, in vivo. As for the experimental part:
The experimental procedure for FIG. 14 was carried out similarly to that in FIG. 1. * means P<0.1 and ** means P<0.05. Body weight was calculated as described for FIGS. 1 and 4-7.
The experiments were performed as indicated for FIG. 14, with Compound (K) being administered orally. Compound K was administered on the days indicated by the arrows at the top of the graph, and paclitaxel was administered on the days indicated by the arrows on the bottom of the graph. Body weight was calculated as described for FIGS. 1, 4-7, 14 and 15. * means P<0.1 and ** means P<0.05.

Series [10] relates to human colon carcinoma HCT-116 xenografts. The experiment in a line: Compound D with Iso-Oxazole-Fludelone or Isodehydelone in nude mice bearing HCT-116 xenografts. To be noted: FIG. 15; Isodehydelone 6 hr-iv infusion, with or without oral Compound (D); n=7.
Where [11] appears, read: 72 h, read-out: IC50 CCRF-CEM, Table 3D, CCK-8, 72-hr incubation.
The mark [12] stands for this setting: read-out: IC50 (in μM), cytotoxic potency against cancer cell line growth in vitro, Table 3C, cell line not given.

Regarding `CCCCCCC[C@H]1OC(C)(C)O[C@@H]1CC#CC#CC(=O)CC` [Compound (J)], the IC50 came out at 13 µM in series [1]; 12.6 µM in the series with A-549 lung carcinoma; 1190 nM in [2] (Table 3D); 1720 nM in series [3]; 1470 nM in the series on MX-1 mammary carcinoma; 1090 nM in the series on HCT-116 colon carcinoma. Further, the figures for the IC50 in series [4] (setting [11]) and in series [4] (setting [12]) were 0.83 ± 0.26 µM and 0.83 µM, respectively.
Take `C[S+]([O-])CCCCN=C=S` (centres unmarked) [sulforaphane]: in [5], the “reported CD value” is 0.2 µM and the reported inducer potency was 188,000,000 U/g.
Turning to `C=C[C@@H](O)C#CC#CC[C@H]1OC(C)(C)O[C@@H]1CCCCCCC` [Compound (A)], the IC50 in series [6] (Aug. 22, 2003 (Stored), same solution kept at −20° C. in DMSO, read-out: IC50 in μM CCRF-CEM) came to 2.12 µM; in series [6] (Aug. 22, 2003 (Stored), same solution kept at −20° C. in DMSO, read-out: IC50 in μM CCRF-CEM/VBL), 2.37 µM; in [6] (Jul. 25, 2003 (Fresh), read-out: IC50 in μM CCRF-CEM), 1.21 ± 0.03 µM; in series [6] (Jul. 25, 2003 (Fresh), read-out: IC50 in μM CCRF-CEM/VBL) it was 1.22 ± 0.15 µM; in series [1] it was 3 µM; in the series on A-549 lung carcinoma it was 3.95 µM. The IC50 was determined as 1120 nM in series [2] (Table 3D), 1920 nM with MX-1 mammary carcinoma, 1280 nM in the series on HCT-116 colon carcinoma and 0.803 µM in [4] (setting [11]). In addition, the “cross-resistance to TAXOL or vinblastine” value in [2] (TAXOL- or vinblastine-resistant (MDR) sublines) is recorded as “do not appear to be cross-resistant to TAXOL or vinblastine”. In addition, the “fold resistance in brackets (IC50 CCRF-CEM/VBL vs CCRF-CEM)” value in [2] (Table 3) is listed as 1.22 x. In addition, the “fold resistance (IC50 CCRF-CEM/VBL vs parent CCRF-CEM)” value in [2] (Table 3A) was found to be 1.4 fold. Also, the “fold of cross-resistance (CCRF-CEM/Vinblastine vs parent cell line)” value in series [2] (Table 3D, given as x or -fold) was 1.4 fold. In addition, the “tumor suppression compared to the control tumor size” value in series [7] (Day 24, i.v. injection Q2D, escalating doses from day 8, FIGS. 1A, 1B) worked out at 47.7%. In addition, the “antitumor effects against MX-1 xenografts” value in series [7] (mouse, in vivo) is on record as “antitumor effects”. For the same molecule, the “level inhibiting tumor growth (as low as)” value in series [7] (mouse, in vivo) is given as 10 mg/kg. The “anti-cancer activity in the in vitro cytotoxicity assay” value in series [4] was “active against cancer”. The “time of maximal stimulation of lymphocyte” value in the series with human PBMC lymphocytes was 120 h.
`O=c1[nH]cc(F)c(=O)[nH]1` [Compound 5FU, 5-fluoro-uracil]: the mice died in [8] is given as 5/8.
With `CCCCCCC[C@H]1OC(C)(C)O[C@@H]1CC#CC#C[C@@H](O)CC` [Compound (K)], the “stability (shelf life)” value in series [6] (compared with Compound D) is on record as “more stable than Compound D”. The IC50 in [1] was 4.03 µM; in the series on A-549 lung carcinoma, 1.02 µM; in series [2] (Table 3D), 3300 nM; in [3] it was 3570 nM; with MX-1 mammary carcinoma, 3440 nM; with HCT-116 colon carcinoma, 3170 nM. Moreover, the IC50 turned out to be 2.03 ± 0.13 µM in series [4] (setting [11]) and 2.03 µM in series [4] (setting [12]). Besides, the “reduction of paclitaxel-induced general toxicity and neurotoxicity compared with Compound D” value in [9] is “superior to Compound D”. In addition, the “effect of oral administration on paclitaxel toxicity” value in series [9] (po) is “orally effective in Reducing the Toxicity of paclitaxel and improving recovery after treatment”.
In the case of `C=Cc1c(C)c2cc3nc(c4c5[n-]c(cc6nc(cc1[n-]2)C(C)=C6CC)c(C)c5C(=O)[C@@H]4C(=O)OC)[C@@H](CCC(=O)OC/C=C(\C)CCC[C@H](C)CCC[C@H](C)CCCC(C)C)[C@@H]3C.[Mg+2]` [chlorophyll a], in series [5], the “reported CD value” is 250 µM and the reported inducer potency is given as 24,600 U/g.
For “iso-oxazole-dehydelone (17-isooxazole-dehydelone) [isodehydelone]”, the mice died entry in [10] is “Two”.
